A short description of this data set: activity coefficient (dimensionless); of the first substance listed, at infinite dilution; xn = mol fraction of the nth substance listed. The conditions noted are these: 101.33 kPa, Liquid, Chromatography, x1 = 0.

Molecules are shown by their SMILES. Numbers after ± are expanded uncertainties.

In the case of `C1CCCC1` [cyclopentane] + CCCCCCCCCCCCCC[P+](CCCCCC)(CCCCCC)CCCCCC.N#CC(=C=[N-])C#N, the activity coefficient is, setting by setting: (328.15 K) 0.99 ± 0.062; (338.15 K) 1 ± 0.06; (348.15 K) 1.01 ± 0.06; (358.15 K) 1.03 ± 0.06; (368.15 K) 1.04 ± 0.07.
For `C=CCCC` [1-pentene] + CCCCCCCCCCCCCC[P+](CCCCCC)(CCCCCC)CCCCCC.N#CC(=C=[N-])C#N the same measures were 1.25 ± 0.08, 1.27 ± 0.08, 1.3 ± 0.08, 1.32 ± 0.09 and 1.34 ± 0.09.
As to `C=C(C)c1ccccc1` [(1-methylethenyl)benzene] + CCCCCCCCCCCCCC[P+](CCCCCC)(CCCCCC)CCCCCC.N#CC(=C=[N-])C#N, the activity coefficient (338.15 K) was 0.64 ± 0.044, the activity coefficient (348.15 K) turned out to be 0.678 ± 0.046, the activity coefficient (358.15 K) turned out to be 0.716 ± 0.048 and the activity coefficient (368.15 K) was 0.751 ± 0.049.
As for `CCC(C)O` (centres undefined) [butan-2-ol] + CCCCCCCCCCCCCC[P+](CCCCCC)(CCCCCC)CCCCCC.N#CC(=C=[N-])C#N, the activity coefficient turned out to be 0.457 ± 0.036 (328.15 K); 0.468 ± 0.037 (338.15 K); 0.476 ± 0.037 (348.15 K); 0.486 ± 0.037 (358.15 K); 0.495 ± 0.038 (368.15 K).
For `CCCCCC` [hexane] + CCCCCCCCCCCCCC[P+](CCCCCC)(CCCCCC)CCCCCC.N#CC(=C=[N-])C#N the same measures were 1.77 ± 0.12, 1.81 ± 0.12, 1.83 ± 0.12, 1.86 ± 0.13 and 1.88 ± 0.13.
On to `C1=CCCCC1` [cyclohexene] + CCCCCCCCCCCCCC[P+](CCCCCC)(CCCCCC)CCCCCC.N#CC(=C=[N-])C#N, for which the activity coefficient (328.15 K) was 0.906 ± 0.057; the activity coefficient (338.15 K) came to 0.922 ± 0.058; the activity coefficient (348.15 K) came out at 0.938 ± 0.059; the activity coefficient (358.15 K) stood at 0.958 ± 0.06; the activity coefficient (368.15 K) was 0.973 ± 0.061.
For `CCO` [ethanol] + CCCCCCCCCCCCCC[P+](CCCCCC)(CCCCCC)CCCCCC.N#CC(=C=[N-])C#N the same measures were 0.462 ± 0.036, 0.471 ± 0.037, 0.477 ± 0.037, 0.485 ± 0.037 and 0.49 ± 0.037.
For `C#CCCCCCC` [1-octyne] + CCCCCCCCCCCCCC[P+](CCCCCC)(CCCCCC)CCCCCC.N#CC(=C=[N-])C#N, in that order: 1.06 ± 0.07, 1.11 ± 0.07, 1.16 ± 0.07, 1.21 ± 0.08 and 1.25 ± 0.08.
For `CCCO` [propan-1-ol] + CCCCCCCCCCCCCC[P+](CCCCCC)(CCCCCC)CCCCCC.N#CC(=C=[N-])C#N the same measures were 0.426 ± 0.035, 0.437 ± 0.035, 0.447 ± 0.036, 0.457 ± 0.036 and 0.465 ± 0.036.
As to `CCCOCCC` [dipropyl ether] + CCCCCCCCCCCCCC[P+](CCCCCC)(CCCCCC)CCCCCC.N#CC(=C=[N-])C#N, the activity coefficient is, setting by setting: (328.15 K) 1.3 ± 0.08; (338.15 K) 1.35 ± 0.09; (348.15 K) 1.39 ± 0.09; (358.15 K) 1.43 ± 0.09; (368.15 K) 1.47 ± 0.1.
For `Cc1ccc(C)cc1` [1,4-dimethylbenzene] + CCCCCCCCCCCCCC[P+](CCCCCC)(CCCCCC)CCCCCC.N#CC(=C=[N-])C#N, in that order: 0.71 ± 0.047, 0.742 ± 0.049, 0.773 ± 0.051, 0.804 ± 0.052 and 0.83 ± 0.053.

The record behind these values is the NIST ThermoML archive (doi:10.1016/j.jct.2018.01.003).
